For series [1], the system named is HCT-116. In words: cells. The note with it: Homo sapiens.
The subject of series [2] is BaF3. Put plainly: cells. Conditions: Mus musculus, BaF3, 72 h.
Series [3] concerns BaF3. In words: cells. The note with it: Mus musculus, BaF3, 72 h. This is another data set of the same source.
The test system of series [4] is HT-29. In words: cells. Conditions: Homo sapiens.
Series [5] has as its system COLO 205. In words: cells. Conditions: Homo sapiens.
A short description of series [6]: Metabolic stability in human liver microsomes assessed as half life at 1 uM measured upto 45 mins in presence of NADPH by LC-MS/MS analysis. Type of series: ADME, Microsome. In general terms: Microsomes from liver hold many membrane-bound enzymes, among them those of drug oxidation.
Series [7] is described as follows: Cytotoxicity against human FHC cells assessed as cell growth inhibition by MTT assay. Type of series: toxicity, cell-based.
For series [8], the system named is SNU-5. Put plainly: cells. Conditions: Homo sapiens.
Series [9] can be described thus: cells. Conditions: Homo sapiens, TT.
Series [10] deals with MKN-45. Put plainly: cells. The note with it: Homo sapiens.
The subject of series [11] is EBC-1. Put plainly: cells. The note with it: Homo sapiens.
For series [12], the system named is LoVo. Put plainly: cells. The note with it: Homo sapiens.
Series [13] can be described thus: Metabolic stability in human liver microsomes assessed as parent compound remaining at 1 uM measured after 45 mins in presence of NADPH by LC-MS/MS analysis. Type of series: ADME, Microsome. Conditions: read-out: Stability.
Series [14] is described as follows: Metabolic stability in human liver microsomes assessed as intrinsic clearance at 1 uM measured upto 45 mins in presence of NADPH by LC-MS/MS analysis. It counts as ADME, Microsome. The note with it: read-out: CLH.
Series [15] has as its target Hepatocyte growth factor receptor (Homo sapiens, UniProt P08581). Put plainly: Inhibition of c-Met (unknown origin).
In series [16] the test system is NCI-H1993. Put plainly: cells. Conditions: Homo sapiens.
Series [17] concerns the target Platelet-derived growth factor receptor beta (Homo sapiens) (UniProt P09619). In words: Inhibition of PDGFRbeta (unknown origin) assessed as residual activity at 1 uM by kinome scan assay relative to control.
Series [18] addresses T1, Proto-oncogene tyrosine-protein kinase receptor Ret (Homo sapiens, UniProt P07949). Put plainly: Inhibition of RET (unknown origin) assessed as residual activity at 1 uM by kinome scan assay relative to control.
The target of series [19] is T1, Proto-oncogene tyrosine-protein kinase receptor Ret. Put plainly: Inhibition of RET (unknown origin) by kinome scan assay.
For series [20], the target named is T2, Tyrosine-protein kinase ABL1 (Homo sapiens, UniProt P00519). Put plainly: Inhibition of ABL (unknown origin) assessed as residual activity at 1 uM by kinome scan assay relative to control.
In series [21] the target is T2, Tyrosine-protein kinase ABL1. In words: Inhibition of ABL (unknown origin) by kinome scan assay.

Bounds are passed on as bounds.

T2 sequence (P00519 whole entry): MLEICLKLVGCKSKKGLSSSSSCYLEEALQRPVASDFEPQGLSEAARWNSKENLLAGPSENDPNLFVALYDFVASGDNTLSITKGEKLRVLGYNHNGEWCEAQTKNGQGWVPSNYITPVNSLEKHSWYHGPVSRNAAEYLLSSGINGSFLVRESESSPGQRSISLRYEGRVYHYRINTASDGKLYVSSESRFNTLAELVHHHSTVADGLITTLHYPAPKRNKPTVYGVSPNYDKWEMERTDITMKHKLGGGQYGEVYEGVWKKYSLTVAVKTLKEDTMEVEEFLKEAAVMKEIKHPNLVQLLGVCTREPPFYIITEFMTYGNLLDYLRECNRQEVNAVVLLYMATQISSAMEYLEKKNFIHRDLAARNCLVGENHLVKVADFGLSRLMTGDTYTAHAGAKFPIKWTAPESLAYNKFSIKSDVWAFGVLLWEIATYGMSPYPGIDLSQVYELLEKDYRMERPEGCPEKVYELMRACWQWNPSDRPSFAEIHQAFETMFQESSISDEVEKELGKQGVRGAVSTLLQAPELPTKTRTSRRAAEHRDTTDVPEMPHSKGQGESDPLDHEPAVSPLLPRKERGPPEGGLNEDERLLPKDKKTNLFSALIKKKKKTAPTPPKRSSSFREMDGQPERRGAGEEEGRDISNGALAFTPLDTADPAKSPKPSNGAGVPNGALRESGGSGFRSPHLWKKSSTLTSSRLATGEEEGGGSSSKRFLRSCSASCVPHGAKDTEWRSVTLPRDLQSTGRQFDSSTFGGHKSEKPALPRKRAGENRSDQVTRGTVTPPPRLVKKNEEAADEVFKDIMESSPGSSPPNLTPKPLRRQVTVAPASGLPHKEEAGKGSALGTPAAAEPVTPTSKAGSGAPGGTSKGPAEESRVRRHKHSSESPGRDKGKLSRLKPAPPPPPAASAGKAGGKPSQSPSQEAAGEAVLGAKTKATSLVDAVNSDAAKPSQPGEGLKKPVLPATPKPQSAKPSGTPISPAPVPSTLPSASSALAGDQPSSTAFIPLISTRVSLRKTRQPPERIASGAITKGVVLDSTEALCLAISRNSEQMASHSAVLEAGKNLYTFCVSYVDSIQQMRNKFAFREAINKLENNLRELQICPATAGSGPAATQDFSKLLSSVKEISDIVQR
T1 sequence (P07949 whole entry): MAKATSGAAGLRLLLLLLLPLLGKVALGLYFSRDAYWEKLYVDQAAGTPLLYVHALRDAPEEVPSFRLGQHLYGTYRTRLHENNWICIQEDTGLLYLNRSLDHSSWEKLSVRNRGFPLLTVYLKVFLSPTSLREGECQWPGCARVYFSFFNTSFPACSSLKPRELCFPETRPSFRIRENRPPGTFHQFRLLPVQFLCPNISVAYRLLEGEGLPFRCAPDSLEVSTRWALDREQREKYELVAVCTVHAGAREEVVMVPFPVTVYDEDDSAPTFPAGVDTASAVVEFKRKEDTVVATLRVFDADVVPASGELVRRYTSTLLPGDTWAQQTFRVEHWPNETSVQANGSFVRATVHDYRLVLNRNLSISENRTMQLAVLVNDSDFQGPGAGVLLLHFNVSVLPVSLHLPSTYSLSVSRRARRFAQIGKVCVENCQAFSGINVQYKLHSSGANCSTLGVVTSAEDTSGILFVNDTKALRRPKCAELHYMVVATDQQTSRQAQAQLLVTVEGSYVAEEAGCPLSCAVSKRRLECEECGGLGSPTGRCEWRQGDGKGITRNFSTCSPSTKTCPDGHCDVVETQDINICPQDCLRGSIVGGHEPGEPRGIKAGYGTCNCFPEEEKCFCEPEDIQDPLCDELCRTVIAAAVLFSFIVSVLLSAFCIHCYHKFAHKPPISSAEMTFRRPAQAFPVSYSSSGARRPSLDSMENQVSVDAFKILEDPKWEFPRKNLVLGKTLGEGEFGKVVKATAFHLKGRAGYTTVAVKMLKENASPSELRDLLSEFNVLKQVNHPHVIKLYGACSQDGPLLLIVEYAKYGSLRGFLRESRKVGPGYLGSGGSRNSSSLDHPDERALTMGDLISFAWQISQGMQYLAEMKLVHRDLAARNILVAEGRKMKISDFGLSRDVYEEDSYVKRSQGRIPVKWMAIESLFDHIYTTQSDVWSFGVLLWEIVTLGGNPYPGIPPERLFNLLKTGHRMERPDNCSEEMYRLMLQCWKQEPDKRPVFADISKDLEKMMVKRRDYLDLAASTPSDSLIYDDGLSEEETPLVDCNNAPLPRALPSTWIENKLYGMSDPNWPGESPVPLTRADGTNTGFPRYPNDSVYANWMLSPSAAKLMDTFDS
Sequence of Platelet-derived growth factor receptor beta (Homo sapiens) (P09619 whole entry): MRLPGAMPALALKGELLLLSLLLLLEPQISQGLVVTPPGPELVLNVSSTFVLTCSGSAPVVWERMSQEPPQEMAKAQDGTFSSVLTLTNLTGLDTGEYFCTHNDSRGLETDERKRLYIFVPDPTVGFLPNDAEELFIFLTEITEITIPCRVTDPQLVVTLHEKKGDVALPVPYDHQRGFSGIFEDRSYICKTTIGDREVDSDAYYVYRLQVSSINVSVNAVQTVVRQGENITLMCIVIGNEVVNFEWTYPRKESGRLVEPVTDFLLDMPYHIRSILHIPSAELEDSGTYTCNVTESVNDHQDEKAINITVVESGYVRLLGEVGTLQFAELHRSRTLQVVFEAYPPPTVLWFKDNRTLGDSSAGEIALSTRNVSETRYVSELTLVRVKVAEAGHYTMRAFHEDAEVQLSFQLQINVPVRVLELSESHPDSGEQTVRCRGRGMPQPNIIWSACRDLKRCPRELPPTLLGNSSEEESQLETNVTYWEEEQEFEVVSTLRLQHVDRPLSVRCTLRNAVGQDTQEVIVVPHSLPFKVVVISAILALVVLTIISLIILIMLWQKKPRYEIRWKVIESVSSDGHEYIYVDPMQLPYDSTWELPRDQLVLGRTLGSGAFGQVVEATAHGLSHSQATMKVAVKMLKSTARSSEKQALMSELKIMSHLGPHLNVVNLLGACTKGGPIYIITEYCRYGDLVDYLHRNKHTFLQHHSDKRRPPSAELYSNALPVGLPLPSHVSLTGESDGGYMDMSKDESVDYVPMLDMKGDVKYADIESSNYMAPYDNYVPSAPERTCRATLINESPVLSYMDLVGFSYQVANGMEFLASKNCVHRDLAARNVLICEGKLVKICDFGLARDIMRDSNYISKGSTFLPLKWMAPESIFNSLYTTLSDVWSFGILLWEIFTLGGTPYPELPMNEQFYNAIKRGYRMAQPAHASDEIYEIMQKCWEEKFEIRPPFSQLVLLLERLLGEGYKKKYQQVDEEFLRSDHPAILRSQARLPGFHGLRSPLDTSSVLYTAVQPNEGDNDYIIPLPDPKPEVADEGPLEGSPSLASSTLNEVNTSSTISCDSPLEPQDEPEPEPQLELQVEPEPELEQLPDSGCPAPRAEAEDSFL
Sequence of Hepatocyte growth factor receptor (P08581 whole entry): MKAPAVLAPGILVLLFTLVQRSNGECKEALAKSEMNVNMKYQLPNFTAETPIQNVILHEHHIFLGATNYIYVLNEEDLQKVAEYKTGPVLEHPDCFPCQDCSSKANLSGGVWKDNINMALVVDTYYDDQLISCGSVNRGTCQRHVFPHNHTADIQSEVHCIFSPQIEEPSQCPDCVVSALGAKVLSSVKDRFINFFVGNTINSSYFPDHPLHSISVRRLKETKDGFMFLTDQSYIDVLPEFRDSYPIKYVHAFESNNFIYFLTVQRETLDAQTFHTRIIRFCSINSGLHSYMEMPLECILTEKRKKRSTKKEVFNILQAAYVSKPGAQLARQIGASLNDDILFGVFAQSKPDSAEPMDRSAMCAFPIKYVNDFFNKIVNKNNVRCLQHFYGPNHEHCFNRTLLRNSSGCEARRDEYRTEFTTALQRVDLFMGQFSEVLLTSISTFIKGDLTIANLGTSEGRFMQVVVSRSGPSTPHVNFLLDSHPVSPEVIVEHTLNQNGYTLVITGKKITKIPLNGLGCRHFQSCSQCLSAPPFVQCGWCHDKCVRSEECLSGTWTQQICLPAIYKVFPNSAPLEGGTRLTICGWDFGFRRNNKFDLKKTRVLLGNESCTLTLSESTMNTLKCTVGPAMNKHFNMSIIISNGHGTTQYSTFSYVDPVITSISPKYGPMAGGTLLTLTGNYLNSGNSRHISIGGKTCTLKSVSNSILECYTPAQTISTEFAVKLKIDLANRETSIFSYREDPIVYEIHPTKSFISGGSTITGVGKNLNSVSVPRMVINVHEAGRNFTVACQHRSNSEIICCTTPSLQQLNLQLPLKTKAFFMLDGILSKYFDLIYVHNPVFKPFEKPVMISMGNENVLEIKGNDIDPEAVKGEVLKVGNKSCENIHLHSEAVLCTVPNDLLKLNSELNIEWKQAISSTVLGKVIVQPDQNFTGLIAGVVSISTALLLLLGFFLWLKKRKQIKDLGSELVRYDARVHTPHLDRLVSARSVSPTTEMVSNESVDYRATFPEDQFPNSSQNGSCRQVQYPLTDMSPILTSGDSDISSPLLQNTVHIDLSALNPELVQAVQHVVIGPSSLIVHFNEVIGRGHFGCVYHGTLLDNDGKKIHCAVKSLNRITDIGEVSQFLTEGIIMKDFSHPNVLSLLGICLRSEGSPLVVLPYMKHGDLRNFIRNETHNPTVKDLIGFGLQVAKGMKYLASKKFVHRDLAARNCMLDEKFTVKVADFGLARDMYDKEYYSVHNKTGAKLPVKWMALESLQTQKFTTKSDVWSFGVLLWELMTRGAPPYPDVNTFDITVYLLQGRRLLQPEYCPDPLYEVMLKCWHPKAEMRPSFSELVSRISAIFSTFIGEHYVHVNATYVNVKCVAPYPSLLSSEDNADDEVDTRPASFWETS

For the compound `COc1cc2c(Oc3ccc(NC(=O)NN4C(=O)CSC4c4c(F)cccc4F)cc3)ccnc2cc1OCCCN1CCCC1` (configuration not stated), the concentration for half-maximal inhibition (IC50) in [1] is 810 nM; in series [2], 150 nM; in series [3] it was 66 nM; in series [4], 160 nM.
In the same order, the values of `CCN(CC)CCCOc1cc2nccc(Oc3ccc(NC(=O)NN4C(=O)CSC4c4c(F)cccc4F)cc3C)c2cc1OC` (configuration not stated) are 640 nM, 840 nM, 460 nM and 220 nM.
On to `CCN1CCN(CCCOc2cc3nccc(Oc4c(F)cc(NC(=O)NN5C(=O)CS[C@@H]5c5ccc(F)cc5F)cc4F)c3cc2OC)CC1`, for which the results for the IC50 in series [5] and in [7] were 63 nM and 4500 nM, respectively. The half-life at 1 µM in [6] was determined as 2.58 h.
In the case of `CCN(CC)CCCOc1cc2nccc(Oc3ccc(C(=O)NN4C(=O)CSC4c4c(F)cccc4F)cc3)c2cc1OC` (configuration not stated), the IC50 came to 3200 nM in series [1], 930 nM in series [2], 330 nM in [3] and 680 nM in series [4].
For the compound `CCN1CCN(CCCOc2cc3nccc(Oc4c(F)cc(NC(=O)NN5C(=O)CSC5c5c(F)cccc5F)cc4F)c3cc2OC)CC1` (configuration not stated), the IC50 in series [1] came out at 540 nM; in series [8], 270 nM; in series [5], 48 nM; in series [2] it was 76 nM; in series [9], 2300 nM; in series [3] it was 45 nM. Moreover, the IC50 was 69 nM in [4]; 610 nM in series [10]; > 10000 nM in series [7]; 160 nM in series [11]; 930 nM in series [12]. Besides, the half-life at 1 µM in series [6] was found to be 1.47 h. Further, the remaining at 0.75 h, 1 µM in series [13] came to 70.1%. For the same compound, the CLint scaled at 1 µM in [14] was found to be 19.8 mL/min/kg.
On to `C[C@]12CC[C@H]3[C@@H](CCC4=CC(=O)CC[C@@]43C)[C@@H]1CC[C@@H]2O` [TESTOSTERONE], for which the half-life at 1 µM in [6] is 0.177 h. In addition, the remaining at 0.75 h, 1 µM in series [13] was found to be 8.1%. In series [14], the CLint scaled at 1 µM amounted to 164 mL/min/kg.
With `CCN(CC)CCCOc1cc2nccc(Nc3ccc(NC(=O)NN4C(=O)CSC4c4c(F)cccc4F)cc3)c2cc1OC` (configuration not stated), the concentration for half-maximal inhibition (IC50) in [1] was > 10000 nM; in [2] it was 4500 nM; in series [3], 2100 nM; in [4], 5500 nM.
For the compound `CNC(=O)c1cc(Oc2ccc(NC(=O)Nc3ccc(Cl)c(C(F)(F)F)c3)c(F)c2)ccn1` [REGORAFENIB], the results for the IC50 in series [1] and in series [4] were 3500 nM and 8600 nM, respectively.
Take `CCN(CC)CCCOc1cc2nccc(Oc3ccc(NC(=O)NN4C(=O)CSC4c4c(F)cccc4F)cc3)c2cc1OC` (configuration not stated): the 50% inhibitory concentration (IC50) in [1] worked out at 150 nM; in series [2], 120 nM; in series [3] it was 58 nM; in series [4], 530 nM.
In the case of `CCN(CC)CCCOc1cc2nc(N)cc(Oc3ccc(NC(=O)NN4C(=O)CSC4c4c(F)cccc4F)cc3)c2cc1OC` (configuration not stated), the 50% inhibitory concentration (IC50) in series [2] is > 10000 nM; in [3] it was 3300 nM.
Regarding `CCN(CC)CCCOc1cc2nccc(Oc3ccc(NC(=O)NN4C(=O)CSC4c4c(F)cccc4F)cc3OC)c2cc1OC` (configuration not stated), the IC50 is 200 nM in series [1], 160 nM in series [2], 110 nM in [3] and 680 nM in series [4].
`O=C(Nc1ccc(Oc2ccnc3c2CCN3)c(F)c1)c1c[nH]cc(-c2ccc(F)cc2)c1=O`: the IC50 in series [15] came out at 6 nM.
Consider `CCN1CCN(CCCOc2cc3nccc(Oc4c(F)cc(NC(=O)NN5C(=O)CSC5c5ccccc5F)cc4F)c3cc2OC)CC1` (configuration not stated), for which the half-maximal inhibitory concentration (IC50) came out at 2300 nM in [16]; 140 nM in series [1]; 880 nM in series [8]; 63 nM in series [5]; 88 nM in series [2]; 53 nM in [3]. Moreover, the IC50 in series [4] is 110 nM; in series [10] it was 2300 nM; in series [7] it was > 10000 nM; in series [11], 230 nM; in series [12], 1300 nM. Besides, the half-life at 1 µM in series [6] was found to be 2.17 h. Besides, the remaining at 0.75 h, 1 µM in series [13] turned out to be 78.2%. Further, in [14], the CLint scaled at 1 µM came to 13.3 mL/min/kg.
On to `CNC(=O)c1c(C)oc2cc(Oc3ncnc4cc(OC)c(OC)cc34)ccc12` [FRUQUINTINIB], for which the IC50 is 800 nM in series [1], > 10000 nM in [5], 1500 nM in series [4] and > 10000 nM in [12].
As for `COc1cc2nccc(Oc3c(F)cc(NC(=O)NN4C(=O)CSC4c4c(F)cccc4F)cc3F)c2cc1OC` (configuration not stated), the IC50 is > 10000 nM in series [1], 650 nM in series [2], 170 nM in series [3] and 4100 nM in [4].
In the case of `CCN1CCN(CCCOc2cc3nccc(Oc4ccc(NC(=O)NN5C(=O)CSC5c5c(F)cccc5F)cc4)c3cc2OC)CC1` (configuration not stated), the half-inhibitory concentration (IC50) in series [1] stood at 110 nM; in series [2] it was 130 nM; in series [3], 59 nM; in [4], 220 nM.
In the same order, the values of `CCN(CC)CCCOc1cc2nccc(Oc3ccc(CC(=O)NN4C(=O)CSC4c4c(F)cccc4F)cc3)c2cc1OC` (configuration not stated) are 7800 nM, 2600 nM, 1300 nM and 1600 nM.
For `CCN1CCN(CCCOc2cc3nccc(Oc4c(F)cc(NC(=O)NN5C(=O)CSC5c5ccc(F)cc5F)cc4F)c3cc2OC)CC1` (racemic), the Activity in [17] was 0.1%; in [18] it was 0.25%; in series [20], 0.25%. Besides, the concentration for half-maximal inhibition (IC50) in [16] stood at 1500 nM; in series [1] it was 98 nM; in [8] it was 170 nM; in [5] it was 35 nM; in series [9], 780 nM; in series [3] it was 57 nM. Further, the IC50 was 530 nM in series [4]; 380 nM in [10]; 4200 nM in [7]; 150 nM in series [11]; 1600 nM in series [12]; 27.9 nM in series [19]. Moreover, in series [21], the IC50 came out at 145 nM. For the same compound, in [6], the half-life at 1 µM was determined as 2.7 h. In addition, the remaining at 0.75 h, 1 µM in [13] came out at 82%. In series [14], the CLint scaled at 1 µM was found to be 10.7 mL/min/kg.
With `CCN(CC)CCCOc1cc2nccc(Oc3c(F)cc(NC(=O)NN4C(=O)CSC4c4c(F)cccc4F)cc3F)c2cc1OC` (configuration not stated), the 50% inhibitory concentration (IC50) was 440 nM in series [1]; 220 nM in series [2]; 94 nM in series [3]; 140 nM in [4]; 3800 nM in series [7].
Take `CCN(CC)CCCOc1cc2nccc(N(C)c3ccc(NC(=O)NN4C(=O)CSC4c4c(F)cccc4F)cc3)c2cc1OC` (configuration not stated): the figures for the IC50 in series [1], in [2] and in series [3] were > 10000 nM, 6900 nM and 2200 nM, respectively.
As to `CCN1CCN(CCCOc2cc3nccc(Oc4c(F)cc(NC(=O)NN5C(=O)CSC5c5ccc(F)cc5)cc4F)c3cc2OC)CC1` (configuration not stated), the IC50 in [1] stood at 200 nM; in series [2], 140 nM; in series [3], 71 nM; in series [4], 520 nM.
For the compound `O=c1ccc2ccc(O)cc2o1` [UMBELLIFERONE], the half-life at 1 µM in series [6] was determined as 0.1 h. In addition, the remaining at 0.75 h, 1 µM in [13] turned out to be 0.8%. Also, in series [14], the CLint scaled at 1 µM was 289 mL/min/kg.
Consider `CCN1CCN(CCCOc2cc3nccc(Oc4c(F)cc(NC(=O)NN5C(=O)CSC5c5ccccc5)cc4F)c3cc2OC)CC1` (configuration not stated), for which the IC50 in [1] is 210 nM; in series [2] it was 260 nM; in [3] it was 140 nM; in series [4], 140 nM.

The term IC50 denotes the point on the concentration scale where inhibition reaches its midpoint. By half-life is commonly meant the time needed for the level to fall by half in the phase considered.

The values are drawn from ChEMBL document CHEMBL5338715, “Identification of (S)-1-(2-(2,4-difluorophenyl)-4-oxothiazolidin-3-yl)-3-(4-((7-(3-(4-ethylpiperazin-1-yl)propoxy)-6-methoxyquinolin-4-yl)oxy)-3,5-difluorophenyl)urea as a potential anti-colorectal cancer agent” (Eur J Med Chem, 2022).
